These results are taken from US9951021B2, “Compounds for inhibiting c-Myc/Max/DNA complex formation” (NATIONAL CANCER CENTER, priority 2016, dated 2018).

One series deals with UM-UC-3. Briefly: Selectivity evaluation, cytotoxicity in UM-UC-3. It is filed as cell-based. As to conditions: Homo sapiens, UMUC3; UM-UC-3 (malignant), 72 hours, ATP detection. The protocol: (§1) Commercially available bladder cancer cell lines were treated with trypsin-EDTA and seeded in each well of a 96 well plate, followed by incubation for 24 hours. After incubation, candidate compounds were added to each well at a final concentration of 0 to 2 μM. The compound-treated cells were further incubated for 72 hours. Cell viability was measured using an ATP detection method (CellTiter-Glo® Luminescent Cell Viability Assay, Promega).
(§2) The selectivity of the compounds of the present disclosure to cancer cells was evaluated in the same manner as described in “2. Cell based assay”.
UM-UC-3: human urinary bladder transitional cell carcinoma

The next series has as its system 253J. Nature of the series: Selectivity evaluation, cytotoxicity in 253J. The series is classed as cell-based. As to conditions: Homo sapiens; 253J (malignant), 72 hours, ATP detection. As to the method:
as §1, §2
253J: human urinary tract transitional cell carcinoma

The test system of the next series is Mouse. Briefly: IV and IP single toxicity test. It is filed as in vivo. As to conditions: for Percentage (deaths), single toxicity evaluation: Mouse.
The next series has as its target T1, recombinant c-Myc/Max (Homo sapiens, UniProt P01106+P61244).
T1 construct: made in house
Nature of the series: Electrophoretic mobility shift assay (EMSA): inhibitory activity on DNA binding of recombinant c-Myc/Max. As to conditions: read-out: protein assay IC50. The method in brief:
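Protein mixture preincubated 5 min at room temperature, compound in DMSO added for 5 min, then biotinylated annealed E-box DNA for 10 min to equilibrium. Complexes resolved on 8% polyacrylamide in 1×TBE (120 V, 1 h), detected with HRP-streptavidin/ECL; protein-DNA complex ratio from band intensity.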
A general note: In EMSA bound probe runs differently from free probe, usually more slowly.

T1 sequence (P01106 whole entry): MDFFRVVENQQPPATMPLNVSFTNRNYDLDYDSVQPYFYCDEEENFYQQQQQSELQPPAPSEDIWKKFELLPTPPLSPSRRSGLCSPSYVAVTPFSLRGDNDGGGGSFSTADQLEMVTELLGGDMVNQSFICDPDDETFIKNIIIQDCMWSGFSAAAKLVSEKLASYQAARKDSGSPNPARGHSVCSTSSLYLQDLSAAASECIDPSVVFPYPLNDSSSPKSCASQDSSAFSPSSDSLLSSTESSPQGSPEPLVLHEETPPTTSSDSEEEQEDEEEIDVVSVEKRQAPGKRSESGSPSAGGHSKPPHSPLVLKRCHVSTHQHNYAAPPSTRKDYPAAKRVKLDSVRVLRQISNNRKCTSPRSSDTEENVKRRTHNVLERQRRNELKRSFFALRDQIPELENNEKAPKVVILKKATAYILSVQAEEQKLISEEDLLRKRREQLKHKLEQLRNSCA
T1 sequence (P61244 whole entry): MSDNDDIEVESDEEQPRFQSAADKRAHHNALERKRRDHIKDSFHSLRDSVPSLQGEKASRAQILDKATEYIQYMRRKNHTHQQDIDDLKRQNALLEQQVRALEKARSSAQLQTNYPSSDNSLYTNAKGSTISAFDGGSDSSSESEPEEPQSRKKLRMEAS

What is called IC50 is the midpoint of a concentration-inhibition curve. In the case of `CC(=O)c1c([S+]([O-])Cc2ccccc2)nc2c(Br)ccc(Cl)c2c1O` (stereo not shown) [Compound 4, 3-acetyl-2-(benzylsulfinyl)-8-bromo-5-chloroquinolin-4(1H)-one], the values for the half-inhibitory concentration (IC50) with UM-UC-3 and in the series on 253J were 1500 nM and 1100 nM, respectively. In addition, the deaths result with Mouse (IV and IP single-dose administration, 40 mpk, 40 mg/kg) is recorded as “No deaths were observed”. For the same compound, the “Percentage (deaths), single toxicity evaluation” value with Mouse (Female, IP 40 mg/kg) was 0 (0/2) %; in the series with Mouse (Female, IV 40 mg/kg), 0 (0/2) %; with Mouse (Male, IP 40 mg/kg) it was 0 (0/2) %.
In the case of `CC(=O)c1c([S+]([O-])Cc2ccc([N+](=O)[O-])cc2)[nH]c2c(Br)ccc(Cl)c2c1=O` (stereo not shown) [Compound 33, 3-acetyl-8-bromo-5-chloro-2-((4-nitrobenzyl)sulfinyl)quinolin-4(1H)-one], the results for the 50% inhibitory concentration (IC50) at recombinant c-Myc/Max, in the series on UM-UC-3 and with 253J were < 1000 nM, 1600 nM and 1600 nM, respectively.
As for `COC(=O)c1ccc(C[S+]([O-])c2[nH]c3c(Cl)ccc(Cl)c3c(=O)c2C(C)=O)o1` (stereo not shown) [Compound 89, methyl 5-(((3-acetyl-5,8-dichloro-4-oxo-1,4-dihydroquinolin-2-yl)sulfinyl)methyl)furan-2-carboxylate], at recombinant c-Myc/Max, the IC50 was < 1000 nM.
Still for that read-out and setting: the value for `CC(=O)c1c([S+]([O-])CN2C(=O)c3ccccc3C2=O)[nH]c2c(Cl)ccc(Cl)c2c1=O` (stereo not shown) [Compound 90, 2-(((3-acetyl-5,8-dichloro-4-oxo-1,4-dihydroquinolin-2-yl)sulfinyl)methyl)isoindoline-1,3-dione] was < 1000 nM; that for `COC(=O)c1ccc(C[S+]([O-])c2[nH]c3c(Cl)ccc(Cl)c3c(=O)c2C(C)=O)cc1` (stereo not shown) [Compound 91, methyl 4-(((3-acetyl-5,8-dichloro-4-oxo-1,4-dihydroquinolin-2-yl)sulfinyl)methyl)benzoate] was < 1000 nM; that for `COc1cccc2[nH]c(SCc3ccc(S(F)(F)(F)(F)F)cc3)c(C(C)=O)c(=O)c12` [Compound 92, 3-acetyl-5-methoxy-2-((4-(pentafluoro-λ6-sulfanyl)benzyl)thio)quinolin-4(1H)-one] was < 1000 nM.
As for `COc1cccc2[nH]c([S+]([O-])Cc3ccc(S(F)(F)(F)(F)F)cc3)c(C(C)=O)c(=O)c12` (stereo not shown) [Compound 93, 3-acetyl-5-methoxy-2-((4-(pentafluoro-λ6-sulfanyl)benzyl)sulfinyl)quinolin-4(1H)-one], the half-inhibitory concentration (IC50) at recombinant c-Myc/Max was < 1000 nM.
The same measure, in the same setting: with `COc1cccc2[nH]c([S+]([O-])Cc3cc(C)on3)c(C(C)=O)c(=O)c12` (stereo not shown) [Compound 94, 3-acetyl-5-methoxy-2-(((5-methylisoxazol-3-yl)methyl)sulfinyl)quinolin-4(1H)-one] the figure was < 1000 nM; with `Cc1cc(C[S+]([O-])c2[nH]c3c(Br)ccc(Cl)c3c(=O)c2C(=O)C(C)C)no1` (stereo not shown) [Compound 95, 8-bromo-5-chloro-3-isobutyryl-2-(((5-methylisoxazol-3-yl)methyl)sulfinyl)quinolin-4(1H)-one], < 1000 nM; with `Cc1cc(C[S+]([O-])c2[nH]c3c(Br)ccc(Cl)c3c(=O)c2C(=O)C2CC2)no1` (stereo not shown) [Compound 96, 8-bromo-5-chloro-3-(cyclopropanecarbonyl)-2-(((5-methylisoxazol-3-yl)methyl)sulfinyl)quinolin-4(1H)-one], < 1000 nM.
Same read-out and setting: with `Cc1cc(C[S+]([O-])c2[nH]c3c(Cl)ccc(Cl)c3c(=O)c2C(=O)C2CC2)no1` (stereo not shown) [Compound 97, 5,8-dichloro-3-(cyclopropanecarbonyl)-2-(((5-methylisoxazol-3-yl)methyl)sulfinyl)quinolin-4(1H)-one] the figure was < 1000 nM; with `CC(=O)c1c([S+]([O-])Cc2ccc(C#N)s2)[nH]c2c(Br)ccc(Cl)c2c1=O` (stereo not shown) [Compound 98, 5-(((3-acetyl-8-bromo-5-chloro-4-oxo-1,4-dihydroquinolin-2-yl)sulfinyl)methyl)thiophene-2-carbonitrile], < 1000 nM.
Still for that read-out and setting: with `CC(=O)c1c([S+]([O-])Cc2ccc(-n3cccn3)nc2)[nH]c2c(Br)ccc(Cl)c2c1=O` (stereo not shown) [Compound 99, 2-(((6-(1H-pyrazol-1-yl)pyridin-3-yl)methyl)sulfinyl)-3-acetyl-8-bromo-5-chloroquinolin-4(1H)-one] the figure was < 1000 nM; with `CC(=O)c1c([S+]([O-])Cc2ccc(N)nc2)[nH]c2c(Br)ccc(Cl)c2c1=O` (stereo not shown) [Compound 100, 3-acetyl-2-(((6-aminopyridin-3-yl)methyl)sulfinyl)-8-bromo-5-chloroquinolin-4(1H)-one], < 1000 nM; with `O=C(c1c([S+]([O-])Cc2ccc(SC(F)(F)F)cc2)[nH]c2c(Br)ccc(Cl)c2c1=O)C1CC1` (stereo not shown) [Compound 101, 8-bromo-5-chloro-3-(cyclopropanecarbonyl)-2-((4-((trifluoromethyl)thio)benzyl)sulfinyl)quinolin-4(1H)-one], < 1000 nM.
Turning to `CC(=O)c1c([S+]([O-])Cc2ccc(C(F)(F)F)nc2C)[nH]c2c(Br)ccc(Cl)c2c1=O` (stereo not shown) [Compound 102, 3-acetyl-8-bromo-5-chloro-2-(((2-methyl-6-(trifluoromethyl)pyridin-3-yl)methyl)sulfinyl)quinolin-4(1H)-one], the IC50 on recombinant c-Myc/Max was < 1000 nM.
Still for that read-out and setting: with `CC(=O)c1c([S+]([O-])Cc2ccc(NS(C)(=O)=O)cc2)[nH]c2c(Br)ccc(Cl)c2c1=O` (stereo not shown) [Compound 103, N-(4-(((3-acetyl-8-bromo-5-chloro-4-oxo-1,4-dihydroquinolin-2-yl)sulfinyl)methyl)phenyl)methanesulfonamide] the figure was < 1000 nM.
On the same count and under the same terms, the value for `CC(=O)c1c([S+]([O-])Cc2ccc(Cl)nc2)[nH]c2c(Br)ccc(Cl)c2c1=O` (stereo not shown) [Compound 104, 3-acetyl-8-bromo-5-chloro-2-(((6-chloropyridin-3-yl)methyl)sulfinyl)quinolin-4(1H)-one] was < 1000 nM; that for `COCCNc1ccc(C[S+]([O-])c2[nH]c3c(Br)ccc(Cl)c3c(=O)c2C(C)=O)cn1` (stereo not shown) [Compound 105, 3-acetyl-8-bromo-5-chloro-2-(((6-((2-methoxyethyl)amino)pyridin-3-yl)methyl)sulfinyl)quinolin-4(1H)-one] was < 1000 nM.
On to `CC(=O)c1c([S+]([O-])Cc2nonc2C)[nH]c2c(Br)ccc(Cl)c2c1=O` (stereo not shown) [Compound 106, 3-acetyl-8-bromo-5-chloro-2-(((4-methyl-1,2,5-oxadiazol-3-yl)methyl)sulfinyl)quinolin-4(1H)-one], for which the IC50 at recombinant c-Myc/Max is < 1000 nM.
`CC(=O)c1c([S+]([O-])Cc2cnc3[nH]ccc3c2)[nH]c2c(Br)ccc(Cl)c2c1=O` (stereo not shown) [Compound 107, 2-(((1H-pyrrolo[2,3-b]pyridin-5-yl)methyl)sulfinyl)-3-acetyl-8-bromo-5-chloroquinolin-4(1H)-one]: at recombinant c-Myc/Max, the concentration for half-maximal inhibition (IC50) is < 1000 nM.
